Source: article PMC4736156 (Drug delivery and translational research, 2016)
“And” between values parts separate entries of the source, which are not always exact repeats. Equal entries are not always repeated. Structures can show the parent of a compound that is named as a salt.

Legend:
[1] = in serum; ref [16]; cited from earlier work
HIV = details: tenofovir gel formulation, vaginal mucosa, CAPRISA 004; ref [4],[5]; cited from earlier work
[2] = in vivo; cited from earlier work
recombinant HIV-1 PR = recombinant HIV-1 PR (Human immunodeficiency virus type 1 group M subtype B, UniProt P04585); assay: FRET-based HIV-1 PR inhibition assay; type: biochemical; details: FRET substrate 5.0 µM, HIV-1 PR 35.2 nM, 37 °C, mean ± s.d., n = 3
[3] = Penetration and retention in mouse colorectal mucosa after rectal dosing; type: in vivo; details: mice, rectal 200 µl of 30 µM; at 2 h and 1 d; result in words

**Q.** With `CC(C)OC(=O)OCOP(=O)(CO[C@H](C)Cn1cnc2c(N)ncnc21)OCOC(=O)OC(C)C` [TDF, tenofovir disoproxil fumarate] as the molecule, how does the half-life [1] read?
**A.** about 17 hours

**Q.** For `C[C@H](Cn1cnc2c(N)ncnc21)OCP(=O)(O)O` [tenofovir], which “effectiveness in preventing HIV transmission” value (HIV) is on record?
**A.** 39%

**Q.** With `CC(Cn1cnc2c(N)ncnc21)OCP(=O)(O)OP(=O)(O)OP(=O)(O)O` (stereo in doubt) [tenofovir diphosphate] as the molecule, how does the “vaginal concentrations in tissue after daily gel administration” value [2] read?
**A.** about 1000 fmol/mg

**Q.** For `CC(C)CN(C[C@@H](O)[C@H](Cc1ccccc1)NC(=O)O[C@H]1CCOC1)S(=O)(=O)c1ccc(N)cc1` [APV, amprenavir], which “rate constant kobs of FRET substrate cleavage (slope of ln(F∞ – Ft) vs time)” value (recombinant HIV-1 PR; 1.0 µM APV) is on record?
**A.** −0.1638 (± 0.0080) min^−1 and −0.1638 (± 0.007995) min^−1

**Q.** And the “rate constant kobs of FRET substrate cleavage (slope of ln(F∞ – Ft) vs time)” value (recombinant HIV-1 PR; 2.0 µM APV)?
**A.** −0.0890 (± 0.0049) min^−1 and −0.0890 (± 0.004938) min^−1

**Q.** And the “rate constant kobs of FRET substrate cleavage (slope of ln(F∞ – Ft) vs time)” value (recombinant HIV-1 PR; 5.0 µM APV)?
**A.** −0.03766 (± 0.0019) min^−1 and −0.03766 (± 0.00191) min^−1

**Q.** What about the “cell viability compared to untreated cells” value (MT-2 cells) of the same molecule?
**A.** no statistical difference in comparison to untreated cells

**Q.** Which mucosal tissue concentration [3] does the source give for fluoresceine thiourea [FTU] here?
**A.** negligible
